From the supplement of paper PMC8372320

Test: photocatalytic hydrogen evolution rate (per 5 mg catalyst); higher = more photocatalytic H2 evolution; extreme values may be limits of the assay
Conditions: catalyst mass (mg): 5; Pt cocatalyst (wt%): 3; sacrificial medium: triethylamine/methanol/water 1:1:1
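Note: aromatic molecules in triethylamine/methanol/water with Pt photoreduced in situ, irradiated 3 h under a 1 sun AM 1.5G solar simulator (350–1000 nm), H2 quantified by headspace gas chromatography; listed molecule itself used as the photocatalyst at 5 mg per vial.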

SMILES | photocatalytic hydrogen evolution rate
COC(OC)(C(=O)c1ccccc1)c1ccccc1 | 1.18 µmol/h
O=C1C(=O)c2cc(Br)ccc2-c2ccc(Br)cc21 | 0 µmol/h
C#Cc1ccc(C=O)cc1 | 0 µmol/h
Cc1[nH]c(C)c(C=O)c1C=O | 0 µmol/h
O=c1c(Br)c[nH]cc1Br | 0.000384 µmol/h
O=Cc1ccc(-n2c3ccccc3c3ccccc32)cc1 | 3.93 µmol/h
O=Cc1cc(F)c(O)c(F)c1 | 0.191 µmol/h
NC(c1ccccc1)(c1ccccc1)c1ccccc1 | 0 µmol/h
Nc1cc(Br)ccc1Br | 0 µmol/h
Brc1sc(Br)c(Br)c1Br | 0 µmol/h
Brc1ccc2c(c1)[nH]c1cc(Br)ccc12 | 0 µmol/h
O=C(O)c1ccc2cc(C(=O)O)ccc2c1 | 0 µmol/h
Nc1cccc2ccccc12 | 0 µmol/h
N#Cc1ccc(-c2ccc(C#N)c(O)c2)cc1 | 8.34 µmol/h
N#Cc1cccc(C=O)c1 | 0.204 µmol/h
O=C(O)c1ccc(-c2cc(-c3ccc(C(=O)O)cc3)cc(-c3ccc(C(=O)O)cc3)c2)cc1 | 0.00212 µmol/h
COC(=O)c1cc(Br)oc1Br | 0 µmol/h
O=Cc1ccc(Cl)cc1 | 0.964 µmol/h
Fc1c(Br)cccc1Br | 0 µmol/h
N#Cc1c[nH]c2ccc(Br)cc12 | 0.015 µmol/h
O=C1OC2(c3cc(Cl)c(O)cc3Oc3cc(O)c(Cl)cc32)c2ccccc21 | 25.2 µmol/h
c1ccc2c(c1)cc1ccc3cccc4ccc2c1c34 | 0.00851 µmol/h
O=[N+]([O-])c1cc(Br)ccc1Br | 0 µmol/h
Nc1cc(C(=O)O)ccc1C(=O)O | 0.109 µmol/h
c1ccc(-c2cccc(-c3ccccc3)c2)cc1 | 0 µmol/h
Brc1cnc(Br)nc1 | 0 µmol/h
N#CCc1ccc(-c2ccc(CC#N)cn2)nc1 | 0.0108 µmol/h

SMILES | photocatalytic hydrogen evolution rate
O=C(O)c1ccc(-c2c3nc(c(-c4ccc(C(=O)O)cc4)c4ccc([nH]4)c(-c4ccc(C(=O)O)cc4)c4nc(c(-c5ccc(C(=O)O)cc5)c5ccc2[nH]5)C=C4)C=C3)cc1 | 2.56 µmol/h
CCOC(=O)c1ccc(C(=O)OCC)nc1 | 0.0237 µmol/h
C#Cc1cc(C#C)cc(C#C)c1 | 0 µmol/h
Brc1ccc2c3ccc(Br)cc3n(-c3ccccc3)c2c1 | 0.0572 µmol/h
O=C1OC2(c3ccccc31)c1cc(I)c(O)c(I)c1Oc1c2cc(I)c(O)c1I | 28.3 µmol/h
Cc1ccc(N)cc1C#N | 0 µmol/h
N#Cc1cccc(-c2ccc(N)cc2)c1 | 0 µmol/h
CC1(C)OB(c2ccc3c4ccc(B5OC(C)(C)C(C)(C)O5)cc4n(-c4ccccc4)c3c2)OC1(C)C | 0.0133 µmol/h
O=C(O)Cc1ccccc1 | 0.0603 µmol/h
O=c1c2ccccc2sc2ccccc12 | 14.6 µmol/h
O=C1OC2(c3ccccc31)c1cc(Br)c(O)c(Br)c1Oc1c2cc(Br)c(O)c1Br | 23.9 µmol/h
Nc1cccc(N)c1 | 0 µmol/h
Fc1c(F)c(F)c(B(c2c(F)c(F)c(F)c(F)c2F)c2c(F)c(F)c(F)c(F)c2F)c(F)c1F | 0.0455 µmol/h
Fc1cc(Br)c(Br)cc1F | 0 µmol/h
Cc1c(C2(c3cc(Br)c(O)c(Br)c3C)OS(=O)(=O)c3ccccc32)cc(Br)c(O)c1Br | 0 µmol/h
Cc1cc(C#N)ncc1Br | 0 µmol/h
Cc1cc(C=O)cc(C)c1O | 0.0076 µmol/h
O=Cc1cc(O)ccc1O | 0 µmol/h
c1ccc(N(c2ccccc2)c2cc(N(c3ccccc3)c3ccccc3)cc(N(c3ccccc3)c3ccccc3)c2)cc1 | 0 µmol/h
O=Cc1cccc(O)c1O | 0 µmol/h
Brc1ccc(Br)c2nccnc12 | 1.37 µmol/h
Nc1ccc(-c2c3nc(c(-c4ccc(N)cc4)c4ccc([nH]4)c(-c4ccc(N)cc4)c4nc(c(-c5ccc(N)cc5)c5ccc2[nH]5)C=C4)C=C3)cc1 | 0 µmol/h
Cn1cnc(C#N)c1C#N | 0.0397 µmol/h
Brc1ccc(-c2ccc(-c3ccc(Br)cc3)cc2)cc1 | 0 µmol/h
O=Cc1c(O)cc(O)cc1O | 0 µmol/h
N#CCc1cccc(CC#N)c1 | 0 µmol/h
Cc1cc(C#N)ccc1C#N | 0 µmol/h

SMILES | photocatalytic hydrogen evolution rate
Cc1cnc(C#N)c(C#N)n1 | 0 µmol/h
N#Cc1cscc1C#N | 0 µmol/h
c1ccc(-c2nc(-c3ccccc3)nc(-c3ccccc3)n2)cc1 | 0.0789 µmol/h
Nc1ccc(-c2ccc(-c3ccc(N)cc3)cc2)cc1 | 0 µmol/h
CCc1cc(C)cc(CC)c1Nc1ccc(Nc2c(CC)cc(C)cc2CC)c2c1C(=O)c1ccccc1C2=O | 0 µmol/h
COC(=O)c1cccc(C(=O)OC)c1 | 0.023 µmol/h
Oc1ccc(O)cc1 | 0 µmol/h
Brc1cccc2cc3cccc(Br)c3cc12 | 0 µmol/h
Nc1nc(Br)cnc1Br | 0.0666 µmol/h
Brc1ccc2c(c1)oc1cc(Br)ccc12 | 0 µmol/h
O=C1c2c(O)cccc2Cc2cccc(O)c21 | 0 µmol/h
CC1(C)OB(c2ccc(B3OC(C)(C)C(C)(C)O3)cc2)OC1(C)C | 0 µmol/h
N#Cc1ccc(C#N)c2ccccc12 | 0.0654 µmol/h
N#Cc1ccccc1CBr | 0 µmol/h
C=CS(=O)(=O)c1ccccc1 | 0 µmol/h
c1csc(-c2ccc(-c3cccs3)s2)c1 | 0 µmol/h
N#Cc1ccc(-c2ccc(N)cc2)cc1 | 0 µmol/h
CNc1ccc(C#N)cc1 | 0 µmol/h
O=C(c1ccccc1)c1ccccc1 | 3.25 µmol/h
CC(=O)c1ccc(C(C)=O)cc1 | 5.52 µmol/h
c1ccc(-c2ccccc2-c2ccccc2)cc1 | 0 µmol/h
CN1C(=O)c2ccc3c4ccc5c6c(ccc(c7ccc(c2c37)C1=O)c64)C(=O)N(C)C5=O | 0 µmol/h
CC(=O)c1cc(C(C)=O)cc(C(C)=O)c1 | 1.98 µmol/h
O=c1c2ccccc2oc2ccccc12 | 7.48 µmol/h
O=Cc1ccc2c(c1)c1ccccc1n2Cc1ccccc1 | 2.52 µmol/h
O=Cc1ccc(O)cc1O | 0.896 µmol/h
c1ccc2c(c1)Cc1ccccc1-2 | 0 µmol/h

SMILES | photocatalytic hydrogen evolution rate
CCOC(=O)c1cc(C(=O)OCC)cc(C(=O)OCC)c1 | 0.0434 µmol/h
Cc1cncc(C)n1 | 0.0345 µmol/h
O=C1Nc2c(Br)cc(Br)cc2C1=O | 0.874 µmol/h
Cc1[nH]c(C=O)cc1C#N | 0 µmol/h
c1ccc2c(c1)-c1ccccc1C21c2ccccc2-c2ccccc21 | 0 µmol/h
O=Cc1ccccc1P(c1ccccc1)c1ccccc1 | 0.079 µmol/h
N#Cc1ccc(C(=O)c2ccc(C#N)cc2)cc1 | 4.66 µmol/h
O=C1N=C(c2cccs2)c2c(O)[nH]c(-c3cccs3)c21 | 0 µmol/h
N#Cc1cc(Br)c(N)c(Br)c1 | 0 µmol/h
N#CCC(=O)c1ccccc1 | 0 µmol/h
N#CCc1ccccc1C#N | 0 µmol/h
O=Cc1ccc(-c2cc(-c3ccc(C=O)cc3)c3ccc4c(-c5ccc(C=O)cc5)cc(-c5ccc(C=O)cc5)c5ccc2c3c54)cc1 | 3.19 µmol/h
C(#Cc1ccccc1)c1ccccc1 | 0 µmol/h
Nc1ccc(-c2ccc(N)c(O)c2)cc1O | 0.104 µmol/h
O=C1c2cccc(O)c2C(=O)c2cccc(O)c21 | 0 µmol/h
O=C1CCC(c2ccccc2)CC1 | 0 µmol/h
Nc1nc(N)nc(N)n1 | 0 µmol/h
COc1c(Br)cc(Br)cc1Br | 0 µmol/h
O=C(O)[C@@H]1CCC(=O)N1C(=O)OCc1ccccc1 | 0 µmol/h
CCCCCCCCC1(CCCCCCCC)c2cc(Br)ccc2-c2ccc(Br)cc21 | 0 µmol/h
N#Cc1cc(C#N)cc(C#N)c1 | 0.00175 µmol/h
c1cc2cccc3c4cccc5cccc(c(c1)c23)c54 | 1.25 µmol/h
N#CC1=C(C#N)SC(C#N)=C(C#N)S1 | 0 µmol/h
c1ccc(-c2cccc(-c3ccccn3)n2)nc1 | 0.17 µmol/h
